Two compounds from paper PMC9568670, “A dominant negative mitofusin causes mitochondrial perinuclear clusters because of aberrant tethering” (Life Science Alliance, 2022) can be followed below.

Molecules are shown by their SMILES. Substitutions are numbered along the chain they refer to. Counter-ions that a name gives are not always drawn.

Common to all, as to assay type: biochemical
In assay [1] the target is T1, Mfn1^WT-FLAG (full-length) (Mus musculus, UniProt Q811U4).
T1 construct: full-length Mfn1 with FLAG tag, TET-induced in Flp-In TREx HEK293 cells; isolated mitochondria; ~200 kD species consistent with cis dimer
T1 sequence (Q811U4 1-741): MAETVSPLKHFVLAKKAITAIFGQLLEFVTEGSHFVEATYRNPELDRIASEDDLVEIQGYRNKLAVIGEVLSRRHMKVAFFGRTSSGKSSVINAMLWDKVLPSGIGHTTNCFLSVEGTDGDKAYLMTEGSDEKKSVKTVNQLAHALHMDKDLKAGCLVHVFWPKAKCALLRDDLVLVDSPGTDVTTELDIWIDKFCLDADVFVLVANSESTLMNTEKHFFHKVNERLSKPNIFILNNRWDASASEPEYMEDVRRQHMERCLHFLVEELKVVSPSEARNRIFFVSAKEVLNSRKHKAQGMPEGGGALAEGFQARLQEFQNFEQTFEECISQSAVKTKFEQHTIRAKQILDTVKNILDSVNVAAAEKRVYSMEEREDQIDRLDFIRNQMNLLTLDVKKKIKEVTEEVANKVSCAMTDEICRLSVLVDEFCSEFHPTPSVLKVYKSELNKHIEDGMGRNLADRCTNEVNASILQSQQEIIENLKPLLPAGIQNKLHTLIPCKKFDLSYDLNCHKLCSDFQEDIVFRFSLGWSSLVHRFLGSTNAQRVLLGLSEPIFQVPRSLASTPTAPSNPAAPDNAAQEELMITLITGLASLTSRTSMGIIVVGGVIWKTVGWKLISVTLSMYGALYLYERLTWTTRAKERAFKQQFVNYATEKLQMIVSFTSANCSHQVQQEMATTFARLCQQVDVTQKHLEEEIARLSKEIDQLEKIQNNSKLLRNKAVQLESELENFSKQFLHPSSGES
In words: blue native PAGE of isolated mitochondria, nucleotide-dependent oligomerization. The conditions noted are these: 2 mM GMP-PNP, 37 C, 30 min; non-hydrolyzable GTP analog; indirect read-out by oligomer shift.

For assay [2], the target named is T2, Mfn1IM (mini-mitofusin Mfn1) (Homo sapiens, UniProt Q8IWA4, S329P/DEL366-695).
T2 construct: pET28, E. coli Rosetta(DE3); N-terminal His6 cut off with PreScission; ~50 kD; monomer with GDP, dimer with GDP-BeF3-
T2 sequence (Q8IWA4 1-365 S329P): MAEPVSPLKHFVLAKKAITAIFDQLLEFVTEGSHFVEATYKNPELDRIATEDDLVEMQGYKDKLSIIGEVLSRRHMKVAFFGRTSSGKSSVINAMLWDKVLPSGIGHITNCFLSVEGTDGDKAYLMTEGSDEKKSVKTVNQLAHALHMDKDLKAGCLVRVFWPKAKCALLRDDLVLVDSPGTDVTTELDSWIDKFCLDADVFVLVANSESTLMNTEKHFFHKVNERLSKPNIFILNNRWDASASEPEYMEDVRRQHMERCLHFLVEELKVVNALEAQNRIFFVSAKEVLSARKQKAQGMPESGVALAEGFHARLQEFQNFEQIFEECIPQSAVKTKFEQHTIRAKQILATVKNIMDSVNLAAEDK
T2 sequence (Q8IWA4 696-741): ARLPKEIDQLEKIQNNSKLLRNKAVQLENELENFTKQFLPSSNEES
In words: malachite green phosphate release, allosteric sigmoidal fit. The settings on record: 2.5 uM protein; pH 7.4, 50 mM KCl, 5 mM MgCl2, 1 mM DTT, 37 C, 15 min.

Assay [3] has as its target T3, Mfn1IM (mini-mitofusin Mfn1) (Homo sapiens, UniProt Q8IWA4, DEL366-695).
T3 construct: pET28, E. coli Rosetta(DE3); N-terminal His6 cut off with PreScission; ~50 kD; monomer with GDP, dimer with GDP-BeF3-
T3 sequence (Q8IWA4 1-365): T2 sequence (Q8IWA4 1-365 S329P) with P329S
T3 sequence (Q8IWA4 696-741): T2 sequence (Q8IWA4 696-741)
Described as above. The conditions noted are these: 2.5 uM protein; pH 7.4, 50 mM KCl, 5 mM MgCl2, 1 mM DTT, 37 C, 15 min.

As for `Nc1nc2c(ncn2[C@@H]2O[C@H](COP(=O)(O)OP(=O)(O)NP(=O)(O)O)[C@@H](O)[C@H]2O)c(=O)[nH]1` [GMP-PNP, guanosine 5′-β,γ-imidotriphosphate trisodium salt hydrate], in assay [1], the “blue native PAGE of isolated mitochondria, nucleotide-dependent oligomerization” value is on record as “GMP-PNP, which shifts mitofusin from the dimer into two larger species”.

Consider `Nc1nc2c(ncn2[C@@H]2O[C@H](COP(=O)(O)OP(=O)(O)OP(=O)(O)O)[C@@H](O)[C@H]2O)c(=O)[nH]1` [GTP], for which the Khalf entry was “kinetics of GTP hydrolysis was similar between Mfn1IM^WT and Mfn1IM^S329P” in assay [2]; “kinetics of GTP hydrolysis was similar between Mfn1IM^WT and Mfn1IM^S329P” in assay [3].
